Experimental data: patent publication US12454687B2, “Functional genomics using CRISPR-Cas systems, compositions, methods, knock out libraries and applications thereof” (The Broad Institute, Inc., priority 2012, dated 2025)

Legend:
human EMX1 locus [1] = assay: double nicking SURVEYOR assay, Cas9 nickase with pairs of guide RNAs, HEK293FT cells; type: cell-based; conditions: sgRNA pairs generating 5′ and 3′ overhangs, offset range from −278 to +58 bp
Experimental: Applicants transfected cells using Lipofectamine 2000, and transfected cells were harvested 48 or 72 hours after transfections. Double nicking-induced NHEJ were detected using the SURVEYOR nuclease assay as described previously herein (FIGS. 51, 52 and 53).

EMX1 locus = assay: HDR with ssODNs and targeting vector in HUES9 cells; type: cell-based, human
Text: (a) Either a targeting plasmid or an ssODN (sense or antisense) with homology arms can be used to edit the sequence at a target genomic locus cleaved by Cas9 (red triangle). To assay the efficiency of HDR, we introduced a HindIII site into the target locus, which was PCR-amplified with primers that anneal outside of the region of homology. […] (b) ssODNs, oriented in either the sense or the antisense (s or a) direction relative to the locus of interest, can be used in combination with Cas9 to achieve efficient HDR-mediated editing at the target locus. A minimal homology region of 40 bp, and preferably 90 bp, is recommended on either side of the modification. […] Each ssODN contains homology arms of 90 bp flanking a 12-bp insertion of two restriction sites.
114| In the HDR example, a HindIII restriction site is inserted into the EMX1 gene. These are detected by a restriction digest of the PCR amplicon:
iv. The cleavage products are imaged and quantified as described above in the SURVEYOR assay section. HDR efficiency is estimated by the formula: (b+c)/(a+b+c), where a is the integrated intensity for the undigested HDR PCR product, and b and c are the integrated intensities for the HindIII-cut fragments.
CRISPR-Cas may be easily multiplexed to facilitate simultaneous modification of several genes and mediate chromosomal microdeletions at high efficiencies. […]

human EMX1 locus [2] = assay: Surveyor assay for genome modification, HEK 293 FT cells; type: cell-based; conditions: co-expression with EMX1-targeting chimeric crRNA, n=3
Experimental: Cells were transfected using Lipofectamine 2000 (Life Technologies) following the manufacturer's recommended protocol. For each well of a 24-well plate a total of 800 ng of plasmids were used.
Genomic DNA was extracted using the QuickExtract DNA extraction kit (Epicentre) following the manufacturer's protocol. […] Extracted genomic DNA was immediately processed or stored at −20° C.
The genomic region surrounding a CRISPR target site for each gene was PCR amplified, and products were purified using QiaQuick Spin Column (Qiagen) following manufacturer's protocol. A total of 400 ng of the purified PCR products were mixed with 2 μl 10× Taq polymerase PCR buffer (Enzymatics) and ultrapure water to a final volume of 20 μl, and subjected to a re-annealing process to enable heteroduplex formation: 95° C. for 10 min, 95° C. to 85° C. ramping at −2° C./s, 85° C. to 25° C. at −0.25° C./s, and 25° C. hold for 1 minute. After re-annealing, products were treated with Surveyor nuclease and Surveyor enhancer S (Transgenomics) following the manufacturer's recommended protocol, and analyzed on 4-20% Novex TBE poly-acrylamide gels (Life Technologies). Gels were stained with SYBR Gold DNA stain (Life Technologies) for 30 minutes and imaged with a Gel Doc gel imaging system (Bio-rad). Quantification was based on relative band intensities, as a measure of the fraction of cleaved DNA.

human EMX1 locus [3] = assay: sequencing of amplicons containing the target locus; type: cell-based; conditions: sequencing of 327 amplicons
human EMX1 locus [4] = assay: restriction fragment length polymorphism assay for homologous recombination; type: cell-based; conditions: HEK 293 FT, HindIII digest
Text: The target genomic region was PCR amplified using primers outside the homology arms of the homologous recombination (HR) template. PCR products were separated on a 1% agarose gel and extracted with MinElute GelExtraction Kit (Qiagen). Purified products were digested with HindIII (Fermentas) and analyzed on a 6% Novex TBE poly-acrylamide gel (Life Technologies).

[5] = system: Exon 51 of the dystrophin gene; conditions: across 48 weeks, cited from earlier work

H840A: SpCas9 with mutation H840A
indel formation with sgRNA pairs (human EMX1 locus [1]): unable to observe indel formation

SpCas9n: SpCas9 with aspartate-to-alanine substitution (D10A) in the RuvC I catalytic domain, a nickase
HDR detection (EMX1 locus): not been able to detect HDR | indels at the EMX1 protospacer target (human EMX1 locus [2]): does not generate indels | indels detected by sequencing (human EMX1 locus [3]): did not detect any indels | integration of the HR template into the EMX1 locus (human EMX1 locus [4]): catalyzed integration of the HR template

eteplirsen
functional benefit [5]: significant functional benefit | dystrophin positive fibers ([5]; average, compared to baseline): 47%
